Test results reported in PubChem BioAssay AID179 (DTP/NCI, 2004).
The source made the active and inactive calls.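 How the source made its calls: active means compounds giving half or more protection of infected cells from virus-caused growth loss, again on retest; inactive means the rest.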 Where a SMILES comes first, the peptide text is derived from it. [ ]: non-standard residue; d: D form. The star is where a group is joined. Phe(4-NO2) = N[CH](Cc1ccc([N+](=O)[O-])cc1)C(=O)O; Cbz = O=C(OCc1ccccc1)*

Tested on: CEM cells HIV-1 protection, formazan growth assay
Assay: NCI AIDS Antiviral Assay
Details: for IC50: measured here: growth of uninfected CEM cells
Outline: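 CEM (human) cells, HIV-1 infected vs uninfected, 5-point dosing, formazan growth read-out. Retest threshold 50% protection.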

SMILES	EC50 [µM]	IC50 [µM]	outcome
Clc1ccc(-c2c(C3=NCCCN3)nnn2-c2ccccc2)cc1	> 389	> 389	–
Clc1ccc(Nc2ncco2)cc1Cl	> 200	107	–
C=Cc1cc[n+](CCCCCC[n+]2ccc(C=C)cc2)cc1	> 200	> 200	–
Cc1c(C(=O)C/C(=N/NC(=O)C[N+](C)(C)C)C(=O)Nc2ccc(Cl)cc2)[n+](=O)c2ccccc2n1O	> 9.12	> 9.12	–
COC(CNC(=O)NC(=O)CCC(=O)O)[CH2][Hg][n]1cnc2c1c(=O)n(C)c(=O)n2C (centres undefined)	> 200	85.1	–
O=C1NCCN1/N=C/c1c(Cl)n(-c2ccccc2)c2ccccc12	> 200	16.6	–
O=C(C/C(=N/O)C(F)(F)F)c1cccs1	> 200	> 200	–
N#Cc1c(-c2ccc(Cl)cc2)[nH]c(=O)n(C2OC(CO)C(O)C(O)C2O)c1=O (centres undefined)	> 200	> 200	–
O=C1NC(N2CCCCC2)=N/C1=C\c1ccc(Cl)cc1	> 200	97.7	–
O=c1c2ccccc2nc(-c2ccc(Br)cc2)n1NC1OC(CO)C(O)C(O)C1O (centres undefined)	–	–	inactive
CC1=NC(=Cc2ccccc2O)C(=O)N1n1c(-c2ccccc2)nc2ccccc2c1=O	> 200	12.6	–
C[C@]12CCC3[C@@H](CC[C@@H]4c5nonc5CC[C@]34C)C1C/C(=N/O)C2=O (some centres undefined)	> 105	95.5	–
CC(C)(CO)CNc1cc(=O)[nH]c(N)n1	> 200	> 200	–
CC(C)OP(=O)(OC(C)C)/C(=N/Nc1ccc([N+](=O)[O-])cc1)NNC(N)=O	> 89.1	26.3	–
Cc1ccc(S(=O)(=O)c2c(O)c3ccccc3n(C)c2=O)cc1	> 200	> 200	–
Cc1cn(C2CC(O)C(CNC(=O)N(O)C3CC(n4cc(C)c(=O)[nH]c4=O)OC3CO)O2)c(=O)[nH]c1=O (centres undefined)	> 200	> 200	–
CCOC(=O)C1=C(O)CC(=O)N=C1N1CCCC1	> 200	> 200	–
COC(=O)Cc1nc2ccccc2o1	> 1290	33.9	–
[Zn+2].c1ccc(-c2c3nc(c(-c4ccccc4)c4[n-]c(c(-c5ccccc5)c5nc(c(-c6ccccc6)c6[n-]c2c2ccccc62)-c2ccccc2-5)c2ccccc42)-c2ccccc2-3)cc1	> 50.1	> 50.1	–
CCOC(=O)c1cc2cc(C)cc(C(=O)c3ccc([N+](=O)[O-])cc3)c2[nH]1	> 200	> 200	–
CC1CCCCC12C(C#N)(C#N)C2(C#N)C#N (centres undefined)	> 20	9.55	–
NC(CSS(=O)(=O)O)=NCCCc1nc2ccccc2[nH]1	> 200	45.7	–

SMILES	EC50 [µM]	IC50 [µM]	outcome
O=C(Cc1ccccc1)ONC(CCCCNC(=O)OCc1ccccc1)C(=O)Nc1ccc(Cc2ccc(NC(=O)C(CCCCNC(=O)OCc3ccccc3)NC(=O)OCc3ccccc3)cc2)cc1 (centres undefined)	> 100	> 100	–
CCCCOC(=O)C(=O)C(CCC(=O)c1ccc(C)cc1)C(=O)C=C(C)C (centres undefined)	> 69.2	> 69.2	–
COc1c2occc2c(OC(C)C(=O)O)c2c(O)cc(=O)oc12 (centres undefined)	> 282	> 282	–
CC1(C)C(O)C[C@]23CCC[C@](C)(C[C@@H](O)C12)C3 (some centres undefined)	> 200	> 200	–
CO[C@@]12CC(=O)/C(=C(O)\C=C\c3ccccc3)C(=O)[C@]1(O)Cc1ccccc1O2	> 316	42.7	–
Cc1cccc(O)c1-c1nnc(CCCCCCCCc2nnc(-c3c(C)cccc3O)n2N)n1N	> 200	2.95	–
Nc1c(Br)cc2c(c1Br)Cc1cc(N=Nc3ccccc3)ccc1-2	51.3	102	–
CCCCn1cc(C(=O)O)c(=O)c2c3sccc3ccc21	> 200	22.4	–
CC(C)(C)Cc1cc(O)ccc1O	> 6.03	3.39	–
Cc1ccc2c(/C=C/c3ccc(N(C)C)cc3)ccc(C(C)C)cc1-2	> 200	151	–
COc1c(Cl)cc(C(=CCCCC(=O)N(C)OC)c2cc(Cl)c(OC)c(C(=O)N(C)OC)c2)cc1C(=O)N(C)OC	> 200	30.9	–
CN(C)C=C1C(=O)c2ccccc2C1=O	> 35.5	> 35.5	–
CCOC(=O)C(=O)Nc1c(N(CC)CC)n2ccccc2nc1=O	> 676	> 676	–
Nc1ncnc2c1ncn2C1OC2CSCCC2(O)C1O (centres undefined)	> 200	> 200	–
S=CN1CCN(C=S)CC1	–	–	inactive
Cc1c(C)c2c(c(N)c1C#N)C(=O)N(O)C2=O	> 200	> 200	–
OC(c1ccc(C(F)(F)F)cc1)C(F)(F)c1nc2ccccc2o1 (centres undefined)	> 200	> 200	–
CCC/C(Cl)=N/OC(NC(=O)OCC)(C(F)(F)F)C(F)(F)F	> 200	10	–
O=C(Cc1nc2c3c(ccc2[nH]c1=O)C(=O)c1ccccc1C3=O)C(=O)Nc1ccccc1[N+](=O)[O-]	> 38.9	10	–
CCCNC(=O)Cn1c(C)cc2ccccc21	> 200	> 200	–
O=C(CS(=O)(=O)c1ccccc1)c1ccccc1	> 347	251	–
COC(=O)C(NC(=O)C(C)NC(=O)OC(C)(C)C)C(C)O (centres undefined)	–	–	inactive

SMILES	EC50 [µM]	IC50 [µM]	outcome
CCOP(=O)(Cc1c(Cl)c(Cl)c(CP(=O)(OCC)OCC)c(Cl)c1Cl)OCC	> 200	26.9	–
O=C(O)CCN1c2ccccc2Sc2ccccc21	> 479	170	–
CCOC(=O)NC(Nc1ccc(OC(F)(F)F)cc1)(C(F)(F)F)C(F)(F)F	> 200	105	–
CCOC(=O)CCC(NC(=O)OCc1ccccc1)C(=O)NC(CCC(=O)OCC)C(=O)NC(Cc1ccc([N+](=O)[O-])cc1)C(=O)NC(CCC(=O)OCC)C(=O)NC(CCC(=O)OCC)C(=O)OCC (centres undefined) (Cbz-E(OEt)E(OEt)[Phe(4-NO2)]E(OEt)E(OEt)-OEt; configuration not given here)	> 200	> 200	–
Cc1ccc(S(=O)(=O)C2=Cc3ccc(C(F)(F)F)cc3C2(O)c2cccc(C(F)(F)F)c2)cc1 (centres undefined)	> 200	2.19	–
O=NNc1ccc(S(=O)(=O)c2ccc(NN=O)cc2)cc1	–	–	inactive
O=c1[nH]c(-c2ccccc2)nc2c1sc1nc3ccccc3n12	> 50.1	> 50.1	–
C=C1c2nc3ccccc3n2C=C(c2ccccc2)N1c1ccc([N+](=O)[O-])cc1	> 200	42.7	–
C1CCC(OCc2nnn3c2CCC3)OC1 (centres undefined)	–	–	inactive
COc1ccc(/C=C/C(=O)Oc2ccccc2OC)cc1	> 200	0.398	–
CN(C)CCC1(C)OCCC2=C1Cc1ccccc12 (centres undefined)	> 200	135	–
C=CCN1CCC(OC(=O)C(O)(/C=C\CC)C2CCCC2)CC1 (centres undefined)	> 200	> 200	–
OC(C1=C/C(=C\c2ccncc2)c2ccccc21)c1ccncc1 (centres undefined)	> 83.2	5.25	–
O=C(O)CCC1CCc2cccc(O)c2C1=O (centres undefined)	–	–	inactive
CCCCCCCCCCCCOC1C(COCCN2CCCC2)OC2OC(C)(C)OC21 (centres undefined)	> 200	3.02	–
O=C1NN(Cc2ccccc2)C(=O)N2CCC[C@@H]12	> 200	> 200	–
Cc1cn([C@H]2[C@@H](CO)C[C@H]2O)c(=O)[nH]c1=O	> 200	> 200	–
O=C(Nc1ccc(Cl)cc1Cl)C(=O)Nn1c(=S)[nH]c2ccccc2c1=O	–	–	inactive
CCCCCCCCCCCCCCCCOCC(Cl)COP(=O)(O)OP(=O)(O)OCC1OC(n2cc(C)c(=O)[nH]c2=O)CC1O (centres undefined)	> 145	123	–
CC(=O)c1sc(Nc2ccc(S(=O)(=O)Nc3nc(C)cc(C)n3)cc2)nc1C	> 200	112	–
Nn1c(Cc2ccccc2)nnc1Cc1ccccc1	> 200	> 200	–
O=c1c(-c2ccc(O)c(O)c2)coc2cc(O)c(O)cc12	> 200	24.5	–

SMILES	EC50 [µM]	IC50 [µM]	outcome
CC(=O)Nc1ccc(S(=O)(=O)N/N=C/c2cc(I)cc([N+](=O)[O-])c2O)cc1	> 501	79.4	–
CC(=O)OC1SC(OC(C)=O)C2OC(=O)OC12 (centres undefined)	> 871	155	–
CCCCCCC(C)S(=O)(=O)O (centres undefined)	> 200	> 200	–
Nc1nc2c3c(ncn3CC(O)CO2)n1 (centres undefined)	> 9.55	> 9.55	–
O=C1CS(=O)(=O)C(c2cccc(Cl)c2)N1N1C(=O)CS(=O)(=O)C1c1cccc(Cl)c1 (centres undefined)	> 200	> 200	–
Cc1cccc(C(C)C)c1N1C(=O)C(=O)C(c2nc3ccccc3o2)C(=O)C1=O	> 13.5	> 13.5	–
NS(=O)(=O)c1ccc(NC2=CC(=O)C(=O)c3ccccc32)cc1	> 30.2	> 30.2	–
CC1(C)C(=NNC(=S)NN)C(C)(C)C1=NNC(=S)NN	> 794	151	–
c1cc2c(ncc3cscc32)s1	–	–	inactive
O=c1n(CCCN2CCN(c3cccc(Cl)c3)CC2)nc2n1-c1ccc3ccccc3c1SC2	> 200	> 200	–
CC(=O)N1CC(O)(c2ccccc2)CSc2ccccc21 (centres undefined)	> 107	> 107	–
O=C(NCCCN(CCCCN(CCCNC(=O)C(F)(F)F)Cc1ccccc1)Cc1ccccc1)C(F)(F)F	> 200	37.2	–
Cc1c(O)cc2c(c1O)C(=O)CC(c1ccc(O)cc1)O2 (centres undefined)	> 200	93.3	–
COC(=O)/C=C\C(C#N)(C#N)N=Cc1sccc1C	0.11	0.398	–
CN1CCC(=O)/C(=C/c2ccccc2)C1	–	–	inactive
O=C(/C=C/c1ccc2c(c1)OCO2)NCCc1ccco1	> 200	126	–
O=c1c2ncn(C3CC(O)C(CO)O3)c2nnn1Cc1ccccc1[N+](=O)[O-] (centres undefined)	> 200	> 200	–
O=C(Cc1ccccc1)NN1C(=O)C(Cl)C1c1cc(Br)ccc1O (centres undefined)	> 12.6	6.92	–
C/C(O)=C(\C=N\C(=S)Nc1ccccc1)C(=O)Nc1ccc(Cl)cc1	–	–	inactive
CN(C)C1C(CO)OC(n2cnc3c(N)ncnc32)C1O (centres undefined)	> 200	> 200	–
COC(=O)c1cc(C(=CCCN)c2cc(Cl)c(OC)c(C(=O)OC)c2)cc(Cl)c1OC	> 200	8.71	–
